Results taken from patent US7572774B2, “Methods for treating glutamate cytotoxicity with beta-naphthoquinone compounds” (Centre National de la Recherche Scientific (C.N.R.S.), priority 1999, dated 2009).

System: release of glutamate from synaptosomes of mouse brains
Test: Release of glutamate from synaptosomes of mouse brains (cerebellar mossy fibers), spontaneous and induced by depolarization, chemiluminescence detection
Type: cell-based
Description: B: Study of the effect of naftazone and of its glucuronide derivatives on the release of glutamate from synaptosomes of mouse brains.
In order to prepare the synaptosomes of mossy fibers, the Swiss-Webster […] are decapitated and the cerebellum is rapidly removed. Small pieces of tissue (1–2 mm^3) are washed in 100 ml of a mammal saline standard solution containing (mM): NaCl, 136; KCl, 5.6; MgCl2 1.2; CaCl2 2.2; glucose 5.5; NaHCO3 7.5; NaHPO4/Na2HPO4 buffer 1.2.
An oxygen current is caused to flow through them for 10 minutes.
In order to dissociate the pieces, they are sucked in a reciprocal movement with a 1 ml pipette.
The homogenate obtained is diluted in 3 ml of mammal Krebs's solution and is filtered through a Nylon® tissue (mesh 50 μm).
The filtrate is collected and left to settle for 30–45 min by gravity.
Synaptosomes derived from the glutarmatergic mossy fibers settle because or their large size with the nuclear fraction. The supernatant is discarded and the sediment is resuspended in 1 ml of a standard solution. The release of glutamate from the synaptosomes is detected according to the technique used for evaluating it in the CSF.
FIGS. 2A and 2B show the effects of naftazone (at concentrations of 0.5–50 μM) and of its glucuronidated derivative, respectively, on the spontaneous release of glutamate (curve -∘-) and of that induced by depolarization (curve -•-).
Each point in A and B represents the ISEM average of 3 measurements carried out in triple. In A, the spontaneously released glutamate is continuously measured during an exposure of 1 hour to the tested drug and is compared with controls. Release of glutamate by depolarization is determined after a 1 hour exposure to the tested drug and is compared with controls.
The drugs are left to incubate for 1 hour with synaptosomal aliquots before the measurement.

SMILES: NC(=O)NNc1ccc2ccccc2c1O[C@@H]1O[C@H](C(=O)O)[C@@H](O)[C@H](O)[C@H]1O [glucuronidated derivative, 1-(1-hydroxy,2-naphthyl)semicarbazide-1-β-O-glucopyranosiduronic acid]
- release of glutamate induced by a medium with a high K+ content (K+ (20 mM) containing Ca (5 mM), FIG. 2B): reduces, in a dose-dependent way
- maximum reduction of K+-induced release of glutamate (at highest concentration tested (32 μM), K+ 20 mM, Ca 5 mM): about 60%
- spontaneous release of glutamate from synaptosomes (glucuronidated derivative, range of the concentrations used (FIG. 2B)): does not reduce the spontaneous release of glutamate
